Laboratory results taken from patent US7781393B2, “Methods for inhibiting tumor cell growth” (Dana-Farber Cancer Institute, Inc., priority 2004, dated 2010).

Key:
MM cell lines = assay: MTT colorimetric survival assay, serum-stimulated MM cell lines; type: cell-based, human
Description: Cell survival of IGF-1R inhibitor-treated cells was examined using the 3-(4,5-Dimethylthiazol-2-yl)-2,5-Diphenyltetrazolium Bromide (MTT) calorimetric assay. […] At the end of each treatment, cells were incubated with 1 mg/ml MTT for 4 hours at 37° C.; a mixture of isopropanol and 1N HCl (23:2, v/v) was then added under vigorous pipetting to dissolve the formazan crystals. Dye absorbance (A) in viable cells was measured at 570 nm, with 630 nm as a reference wavelength. Cell survival was estimated as a percentage of the value of untreated controls. All experiments were repeated at least three times, and each experimental condition was repeated at least in quadruplicate wells in each experiment.

MM-1S-Luc human MM cells = assay: Model of diffuse skeletal MM lesions, bioluminescence imaging and survival; type: in vivo
Description: Briefly, male (6 to 8-week old) SCIDI/NOD mice (Jackson Laboratories, Bar Harbor, Me.) were sublethally irradiated (300 rads) using ^137CS γ-irradiator source. After 3-6 hours, 5×10^6 MM-1S-luc^+ cells in 100 μL of phosphate-buffered saline (PBS) was injected via the tail vein into each mouse. Mice were monitored daily for changes in their body weight, signs of infection, and paralysis, and weekly by whole-body bioluminescence imaging utilizing the In Vivo Imaging System (IVIS, Xenogen Corp, Alameda, Calif.) with total imaging time of 2 min, bin 2. Total body bioluminescence was quantified by integrating the photonic flux (photons/sec) through a standardized region of interest encompassing each mouse (Living Images, Xenogen). […] Melphalan (Alkeran, GlaxoSmithKline, Research Triangle Park, N.C.) was formulated according to manufacturer's instructions, and was administered by i.p. injection. All animal studies were approved by the Dana-Farber Cancer Institute Animal Care and Use Committee.
Statistical significance for in vitro assay results was examined by 2-way analysis of variance, followed by Duncan's post-hoc test. Statistical significance for bioluminescence imaging studies was determined by two-tailed student's t-test. In all analyses, P<0.05 was considered statistically significant. For assessment of in vivo anti-tumor activity, the overall survival of mice was defined as the time between i.v. injection of tumor cells and sacrifice or, death and was compared across different treatment groups with Kaplan-Meier survival analysis.
The in vivo anti-tumor activity of IGF-1R inhibition in a mouse xenograft model of MM was examined. The MM cell line MM-1S was engineered to stably express firefly luciferase fused to a selectable marker (neomycin phosphotransferase or enhanced GFP). Sub-lethally irradiated NOD/SCID mice were injected intravenously with MM-1S-Luc cells and tumor distribution was followed by serial whole-body non-invasive imaging of visible light emitted by luciferase-expressing tumor cells upon injection of mice with luciferin.
Sublethally irradiated NOD/SCID mice were injected with MM1S-Luc cells, and serially imaged to monitor tumor burden. After 2-3 weeks, cohorts of mice with similarly increasing tumor burden were divided into control and treatment groups.

[1] = tested on: MM cells, prostate cancer cells, SK-N-MC sarcoma cells; assay: Sensitization of tumor cells to other anti-cancer therapies in vitro; type: cell-based, human; details: MM cells to doxorubicin, melphalan, dexamethasone, TRAIL/Apo2L, PS-341, SK-N-MC to Fas ligation
Description: The ability of IGF-1R inhibitors to sensitize tumor cells to other anti-cancer therapies in vitro was determined.

MM-1S cells = assay: Immunoblotting of anti-apoptotic signaling cascades; type: cell-based, human; details: 500 nM, serum-containing medium
Description: Flow cytometric analyses for IGF-1R, and IGF-2R were performed as previously described on a EPICS-XL-MCL flow cytometer (Beckman Coulter). Previously described protocols were applied for immunoblotting analyses; TRAP telomerase activity assay; 20S proteasome chymotryptic activity assay; DNA binding activity ELISAs for quantitative assessments of NF-κB and HIF-1a transcriptional activities. VEGF and IGF-1 ELISAs were performed according to manufacturer's instructions (R&D Systems, Minneapolis, Minn.).

[2] = monotherapy 10 mg/kg i.p. twice daily

Structure (SMILES): Nc1ncnc2c1c(-c1cccc(OCc3ccccc3)c1)cn2[C@H]1C[C@H](CN2CCCC2)C1 [ADW-742, trans-5-(3-benzyloxy-phenyl)-7-(3-pyrrolidin-1-ylmethyl-cyclobutyl)-7H-pyrrolo[2,3-d]pyrimidin-4-ylamine]
- IC50 (MM cell lines; Homo sapiens, values generally in this range, 0-10 μM for 72 hours, read-out: IC50, serum-induced cell growth of MM cell lines): 0.1 to 0.5 µM
- activity against MM cell lines with known resistance to conventional or investigational anti-cancer agents (MM cell lines; also primary tumor cells from MM patients with multi-drug resistant disease): active
- treatment-related toxicity (MM-1S-Luc human MM cells; 10 mg/kg i.p. twice daily): no other significant treatment-related toxicity
- median overall survival (MM-1S-Luc human MM cells; 10 mg/kg i.p. twice daily for 19 days, control 21 days, P=0.02 log-rank): 38 days
- anti-tumor activity, pulsatile administration (MM-1S-Luc human MM cells; 10 mg/kg i.p. twice daily, 4 days per week, alone): no significant anti-tumor activity
- body weight (MM-1S-Luc human MM cells; 10 mg/kg i.p. twice daily, between treatment groups, P=0.82): no difference in body weight
- survival, combination with melphalan (MM-1S-Luc human MM cells; melphalan 2.5 mg i.p once a week followed by ADW-742 10 mg/kg i.p. twice daily, 4 days per week): synergistic effect in prolonging the survival of mice
- survival of mice (MM-1S-Luc human MM cells; [2]): prolongs the survival of mice
- tumor growth (MM-1S-Luc human MM cells; [2]): significantly suppresses tumor growth
- anti-tumor efficacy, further studies (MM-1S-Luc human MM cells; second study same i.p. dosing, third study orally 50 mg/kg twice daily): Consistent results
- sensitivity of tumor cells to other anti-cancer therapies [1]: increases the sensitivity
- Akt, MEK1/2 and FKHRL-1 phosphorylation (MM-1S cells): early suppression
- intracellular levels of Akt, Bmx, IKK-α and RANKL (MM-1S cells): decrease
